The test deals with AtCHI (Arabidopsis thaliana, UniProt P41088). As to conditions: cyclization of the chalcone; constant not given.

CHI activity assay data for one compound are collected here from PMC3880581 (Nature, 2012).

AtCHI, sequence (P41088 whole entry): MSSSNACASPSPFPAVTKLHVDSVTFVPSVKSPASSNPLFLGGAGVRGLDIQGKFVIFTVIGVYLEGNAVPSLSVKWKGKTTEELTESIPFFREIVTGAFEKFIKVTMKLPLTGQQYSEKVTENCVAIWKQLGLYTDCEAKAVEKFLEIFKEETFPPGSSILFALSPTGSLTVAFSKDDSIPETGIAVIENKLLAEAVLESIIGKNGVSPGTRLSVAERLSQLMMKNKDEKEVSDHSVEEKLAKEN

`O=C1C[C@@H](c2ccc(O)cc2)Oc2cc(O)cc(O)c21` [(2S)-naringenin]: the CHI activity assay entry is “AtCHI catalyzes the in vitro formation of (2S)-naringenin”.
